The structures appear in SMILES notation. pIC50: −log10 of the molar value.

Chain of SARM1 (50-724) (Q6SZW1 50-724): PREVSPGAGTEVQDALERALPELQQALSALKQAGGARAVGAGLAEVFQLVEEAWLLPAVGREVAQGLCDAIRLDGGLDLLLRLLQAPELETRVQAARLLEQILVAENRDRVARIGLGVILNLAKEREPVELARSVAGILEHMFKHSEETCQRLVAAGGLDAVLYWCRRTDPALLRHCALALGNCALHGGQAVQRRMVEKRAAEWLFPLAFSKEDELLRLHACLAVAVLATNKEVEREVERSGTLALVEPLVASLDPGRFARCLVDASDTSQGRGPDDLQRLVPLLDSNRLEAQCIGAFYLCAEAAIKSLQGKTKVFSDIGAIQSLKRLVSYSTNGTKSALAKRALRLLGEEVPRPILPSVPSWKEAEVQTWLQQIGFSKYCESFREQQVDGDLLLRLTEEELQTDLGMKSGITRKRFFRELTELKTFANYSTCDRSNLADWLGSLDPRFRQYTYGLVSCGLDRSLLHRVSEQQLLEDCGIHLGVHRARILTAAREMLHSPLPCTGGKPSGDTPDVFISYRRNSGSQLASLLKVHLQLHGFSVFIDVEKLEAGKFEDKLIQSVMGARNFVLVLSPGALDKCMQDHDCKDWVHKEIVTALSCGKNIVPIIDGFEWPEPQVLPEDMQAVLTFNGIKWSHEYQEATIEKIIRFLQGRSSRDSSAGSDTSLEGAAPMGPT

The assay has as its target SARM1 (50-724) (Homo sapiens (Human), UniProt Q6SZW1). In words: SARM1 (50-724) enzymatic assay. As to conditions: SARM1 inhibitory activity; 2 nM SARM1 (50-724), 200 μM NMN activator, 100 μM NAD+ substrate, 1 h, LC-MS/MS. The assay is classed as biochemical. How it is done:
The enzymatic assay was performed in a 384-well plate using Dulbecco's PBS buffer as the reaction buffer. Purified SARM1 (50-724) with a final concentration of 2 nM was pre-incubated with the test compound at 1% DMSO final assay concentration for 15 min at room temperature. The reaction was initiated by adding the mixture of 200 μM NMN as activator and 100 μM NAD^+ as substrate. After 1 h of incubation at room temperature, the reaction was terminated with 10 times volume of 70% acetonitrile, then centrifuged at 3800 rpm for 10 min. The samples were analyzed using LC-MS/MS after diluted to the proper concentration by 10 mM ammonium acetate (pH 9.75).
`Cc1ccncc1-c1ccc2c(c1)OCCN2` [Compound 53, 7-(4-methylpyridin-3-yl)-3,4-dihydro-2H-benzo[b][1,4]oxazine] gave a pIC50 of under 4.52.

Turning to `Cc1ccncc1-c1cccc(C(F)F)c1` [Compound 62, 3-(3-(difluoromethyl)phenyl)-4-methylpyridine], the pIC50 is over 5.30.

Consider `Cc1ccncc1-c1ccc2[nH]ncc2c1` [Compound 24, 5-(4-methylpyridin-3-yl)-1H-indazole], for which the pIC50 was over 5.30. Next, `CC(C)(C)OC(=O)N1CCCc2ccc(Nc3cncc(-c4ccc5[nH]c(=O)oc5c4)c3)cc21` [Compound 106, tert-butyl 7-((5-(2-oxo-2,3-dihydrobenzo[d]oxazol-6-yl)pyridin-3-yl)amino)-3,4-dihydroquinoline-1(2H)-carboxylate]: over 5.30; `Cc1ccc(Nc2cncc(-c3ccc4[nH]c(=O)oc4c3)c2)cc1` [Compound 98, 6-(5-(p-tolylamino)pyridin-3-yl)benzo[d]oxazol-2(3H)-one]: over 5.30; `Oc1cccc(-c2cccnc2)c1` [Compound 10, 3-(pyridin-3-yl)phenol]: 4.52 to 4.82. Next, `Cc1ccncc1-c1ccc2c(c1)NC(=O)C2` [Compound 55, 6-(4-methylpyridin-3-yl)indolin-2-one]: 4.52 to 4.82; `CCc1ccncc1-c1ccc2[nH]c(=O)oc2c1` [Compound 83, 6-(4-ethylpyridin-3-yl)benzo[d]oxazol-2(3H)-one]: over 5.30; `Cc1ccncc1-c1ccc2c(c1)CCN2` [Compound 33, 5-(4-methylpyridin-3-yl)indoline]: 4.52 to 4.82. In the case of `Cc1ccncc1-c1ccc2[nH]nc(C#N)c2c1` [Compound 92, 5-(4-methylpyridin-3-yl)-1H-indazole 3-carbonitrile] it was over 5.30. With `Cc1ccncc1-c1ccc2c(c1)CNC(=N)N2` [Compound 79, 6-(4-methylpyridin-3-yl)-3,4-dihydroquinazolin-2(1H)-imine], the pIC50 was over 5.30. The molecule `Cc1ccncc1-c1cc(Cl)c2[nH]ncc2c1` [Compound 58, 7-chloro-5-(4-methylpyridin-3-yl)-1H-indazole] gave a pIC50 of 4.82 to 5.30. For the molecule `CC(=O)Nc1nc2cc(-c3cnccc3C)ccc2[nH]1` [Compound 73, N-(5-(4-methylpyridin-3-yl)-1H-benzo[d]imidazol-2-yl)acetamide], the pIC50 is over 5.30. Next, `O=c1[nH]c2ccc(-c3cncc(Nc4ccccn4)c3)cc2o1` [Compound 113, 6-(5-(pyridin-2-ylamino)pyridin-3-yl)benzo[d]oxazol-2(3H)-one]: over 5.30.

For orientation: pIC50 means the negative decadic logarithm of the IC50, by convention in mol/L.
